Measured values published in patent US11000033B2, “Ketone or oxime compound, and herbicide” (NISSAN CHEMICAL CORPORATION, priority 2014, dated 2021).

Assays:
Assay type in all cases: in vivo
[1] = test system: Chenopodium album; test: Test Example 4: herbicidal effect by soil treatment (symbol O); details: for O: Chenopodium album, herbicidal effect grade: 320 g/ha; for Herbicidal effect grade, O: Chenopodium album: application herbicide amount 320 g/ha
Description: Herbicidal Effect Test by Soil Treatment
Sterilized diluvial soil was placed in a plastic box having a length of 21 cm, a width of 13 cm, and a depth of 7 cm. Each of the seeds of Digitaria ciliaris, Setaria viridis, Echinochloa crus-galli var. crus-galli, Avena fatua, Alopecurus myosuroides, Lolium multiflorum Lam., Apera spica-venti, Abutilon theophrasti, Amaranthus retroflexus, Chenopodium album, Stellaria media, Galium spurium, Veronica persica, corn, soybean, rice, wheat, beet, and rapeseed was sowed in a spot-like manner and was covered with the soil of a thickness of about 1.5 cm. Subsequently, the emulsion agent of the compound present invention prepared in accordance with Formulation Example 2 was diluted with water so as to be a predetermined herbicide amount and the diluted emulsion agent was uniformly applied to the surface of the soil with a small-size spray. The plastic box was placed in a greenhouse of 25° C. to 30° C. to grow plant. 3 weeks later from the herbicide application, the effect to each plant was investigated in accordance with the criteria of Test Example 1.

[2] = test system: corn; test: Test Example 5: effect on crop by foliage application, plastic box (symbol c); details: 320 g/ha, 3 weeks after application
Method in brief: (§1)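 Plants were raised from seed in a greenhouse (25° C. to 30° C.) after sowing in a plastic box of sterilized diluvial soil.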

[3] = test system: Leptochloa chinensis; test: Test Example 3: herbicidal effect by foliage application, Wagner pot (symbol D); details: application herbicide amount 320 g/ha; for D (Leptochloa chinensis) herbicidal effect grade: Table 24
Method in brief: (§2)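 The compound, formulated as an emulsion and diluted with water to a predetermined rate, is applied uniformly to leaves of two-week-old seedlings growing in submerged alluvial soil at 25–30 °C. Rice is included. Each plant is assessed 3 weeks later using defined criteria.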

[4] = test system: Avena fatua; test: Test Example 4: herbicidal effect by soil treatment (symbol I); details: for I: Avena fatua, herbicidal effect grade: 320 g/ha; for Herbicidal effect grade, I: Avena fatua: application herbicide amount 320 g/ha
Method in brief: (§3)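 Seeds were sown in sterilized diluvial soil, covered with about 1.5 cm of soil, and the soil surface was sprayed with a water-diluted emulsion of the compound at a predetermined rate. Plants grew in a greenhouse at 25° C. to 30° C.; effects were scored visually 3 weeks after application.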

[5] = test system: Lolium multiflorum Lam.; test: Test Example 5: herbicidal effect by foliage application, plastic box (symbol K); details: 320 g/ha, 3 weeks after application
Method in brief: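 Visual herbicidal score, taken three weeks post-application, of seedlings sprayed on the foliage with water-diluted emulsion at a predetermined amount; plants were 14 days old, greenhouse-raised at 25° C. to 30° C.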

[6] = test system: Monochoria vaginalis; test: Test Example 2: herbicidal activity, application during weed generation in submerged conditions (symbol C); details: Table 23; application herbicide amount 320 g/ha; grade 0-5 by criteria of Test Example 1
Method in brief: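 Treatment timing was the one- to two-leaf stage, with diluted emulsifiable compound dropped onto the paddy water (depth 4 cm) over alluvial soil. All three species grew from a mixed sowing in a 25° C. to 30° C. greenhouse. Injury was judged by eye 3 weeks on.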

[7] = test system: Echinochloa crus-galli var. crus-galli; test: Test Example 3: herbicidal effect by foliage application, Wagner pot (symbol H); details: application herbicide amount 320 g/ha; for H (Echinochloa crus-galli var. crus-galli) herbicidal effect grade: Table 24
Method in brief: as §2

[8] = test system: Abutilon theophrasti; test: Test Example 4: herbicidal effect by soil treatment (symbol M); details: for M: Abutilon theophrasti, herbicidal effect grade: 320 g/ha; for Herbicidal effect grade, M: Abutilon theophrasti: application herbicide amount 320 g/ha
Method in brief: as §3

[9] = test system: soybean; test: Test Example 5: effect on crop by foliage application, plastic box (symbol d); details: 320 g/ha, 3 weeks after application
Method in brief: as §1

[10] = test system: rapeseed; test: Test Example 5: effect on crop by foliage application, plastic box (symbol g); details: 320 g/ha, 3 weeks after application
Method in brief: as §1

[11] = test system: Monochoria vaginalis; test: Test Example 1: herbicidal activity, application before weed generation in submerged conditions (symbol C); details: application herbicide amount 320 g/ha
Method in brief: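 Scores run 0 to 5 by herbicidal ratio, with 5 meaning 90% or more and 0 meaning 5% or lower, read 3 weeks after treatment. Compound was applied as a diluted emulsion to the water surface of submerged alluvial-soil pots on the day weed seeds were sown.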

| SMILES | O: Chenopodium album, herbicidal effect grade [1] | c: corn, effect on crop (criteria 0-5) [2] | I: Avena fatua, herbicidal effect grade [4] | K: Lolium multiflorum Lam., herbicidal effect (criteria 0-5) [5] | Herbicidal effect grade, C: Monochoria vaginalis [6] | d: soybean, effect on crop (criteria 0-5) [9] | g: rapeseed, effect on crop (criteria 0-5) [10] | Herbicidal effect grade, O: Chenopodium album [1] | c: corn, effect on crop grade [2] | D (Leptochloa chinensis) herbicidal effect grade [3] | C (Monochoria vaginalis) herbicidal effect grade [11] | Herbicidal effect grade, I: Avena fatua [4] | K: Lolium multiflorum Lam., herbicidal effect grade [5] | H (Echinochloa crus-galli var. crus-galli) herbicidal effect grade [7] | Herbicidal effect grade, M: Abutilon theophrasti [8] | d: soybean, effect on crop grade [9] | g: rapeseed, effect on crop grade [10] | further results |
| --- | --- | --- | --- | --- | --- | --- | --- | --- | --- | --- | --- | --- | --- | --- | --- | --- | --- | --- |
| CC(CC1CC(O)=C(c2c(C)cc(C)cc2C)C1=O)=NOC1CCCC1 (stereo not drawn) [1-106] | 0 (Herbicidal ratio of 5% or lower (almost no effect)) | 5 (Herbicidal ratio of 90% or more (almost completely withered)) | 3 (Herbicidal ratio of 40% or higher and lower than 70%) | 5 (Herbicidal ratio of 90% or more (almost completely withered)) | 0 (Herbicidal ratio of 5% or lower (almost no effect)) | 0 (Herbicidal ratio of 5% or lower (almost no effect)) | 3 (Herbicidal ratio of 40% or higher and lower than 70%) |  |  |  |  |  |  |  |  |  |  | herbicidal effect on D (Leptochloa chinensis), grade 0-5 [3]: 5 (Herbicidal ratio of 90% or more (almost completely withered)); herbicidal effect on H (Echinochloa crus-galli var. crus-galli), grade 0-5 [7]: 5 (Herbicidal ratio of 90% or more (almost completely withered)); M: Abutilon theophrasti, herbicidal effect grade [8]: 0 (Herbicidal ratio of 5% or lower (almost no effect)) |
| CC(CC1CC(O)=C(c2c(C)cc(C)cc2C)C1=O)=NOCc1ccccc1Cl (stereo not drawn) [1-113] | 0 (Herbicidal ratio of 5% or lower (almost no effect)) | 0 (Herbicidal ratio of 5% or lower (almost no effect)) | 3 (Herbicidal ratio of 40% or higher and lower than 70%) | 5 (Herbicidal ratio of 90% or more (almost completely withered)) | 0 (Herbicidal ratio of 5% or lower (almost no effect)) | 0 (Herbicidal ratio of 5% or lower (almost no effect)) | 5 (Herbicidal ratio of 90% or more (almost completely withered)) |  |  |  |  |  |  |  |  |  |  | Herbicidal effect grade, C: Monochoria vaginalis [11]: 4 (Herbicidal ratio of 70% or higher and lower than 90%); M: Abutilon theophrasti, herbicidal effect grade [8]: 0 (Herbicidal ratio of 5% or lower (almost no effect)) |
| CC(CC1CC(O)=C(c2c(C)cc(C)cc2C)C1=O)=NOCc1ccc(F)cc1 (stereo not drawn) [1-136] | 0 (Herbicidal ratio of 5% or lower (almost no effect)) | 3 (Herbicidal ratio of 40% or higher and lower than 70%) | 3 (Herbicidal ratio of 40% or higher and lower than 70%) | 5 (Herbicidal ratio of 90% or more (almost completely withered)) | 5 (Herbicidal ratio of 90% or more (almost completely withered)) | 1 (Herbicidal ratio of 5% or higher and lower than 20%) | 4 (Herbicidal ratio of 70% or higher and lower than 90%) |  |  |  |  |  |  |  |  |  |  | herbicidal effect on D (Leptochloa chinensis), grade 0-5 [3]: 2 (Herbicidal ratio of 20% or higher and lower than 40%); Herbicidal effect grade, C: Monochoria vaginalis [11]: 5 (Herbicidal ratio of 90% or more (almost completely withered)); herbicidal effect on H (Echinochloa crus-galli var. crus-galli), grade 0-5 [7]: 5 (Herbicidal ratio of 90% or more (almost completely withered)) |
| CC#Cc1cc(C)c(C2=C(O)CC(CC(=NOC)C(C)C)C2=O)c(C)c1 (stereo not drawn) [9-006] |  |  |  |  |  |  |  | 0 (Herbicidal ratio of 5% or lower (almost no effect)) | 5 (Herbicidal ratio of 90% or more (almost completely withered)) | 5 (Herbicidal ratio of 90% or more (almost completely withered)) | 0 (Herbicidal ratio of 5% or lower (almost no effect)) | 4 (Herbicidal ratio of 70% or higher and lower than 90%) | 5 (Herbicidal ratio of 90% or more (almost completely withered)) | 5 (Herbicidal ratio of 90% or more (almost completely withered)) | 0 (Herbicidal ratio of 5% or lower (almost no effect)) | 0 (Herbicidal ratio of 5% or lower (almost no effect)) | 4 (Herbicidal ratio of 70% or higher and lower than 90%) |  |
| CON=C(CC1CC(O)=C(c2c(C)cc(-n3cc(Cl)cn3)cc2C)C1=O)C1CC1 (stereo not drawn) [9-007] |  |  |  |  |  |  |  | 0 (Herbicidal ratio of 5% or lower (almost no effect)) | 5 (Herbicidal ratio of 90% or more (almost completely withered)) | 5 (Herbicidal ratio of 90% or more (almost completely withered)) | 0 (Herbicidal ratio of 5% or lower (almost no effect)) | 3 (Herbicidal ratio of 40% or higher and lower than 70%) | 5 (Herbicidal ratio of 90% or more (almost completely withered)) | 5 (Herbicidal ratio of 90% or more (almost completely withered)) | 0 (Herbicidal ratio of 5% or lower (almost no effect)) | 0 (Herbicidal ratio of 5% or lower (almost no effect)) | 4 (Herbicidal ratio of 70% or higher and lower than 90%) |  |
| CC#Cc1cc(C)c(C2=C(O)CC(CC(=NOCC(F)(F)F)C(C)C)C2=O)c(C)c1 (stereo not drawn) [9-015] |  |  |  |  |  |  |  | 0 (Herbicidal ratio of 5% or lower (almost no effect)) | 5 (Herbicidal ratio of 90% or more (almost completely withered)) | 5 (Herbicidal ratio of 90% or more (almost completely withered)) | 1 (Herbicidal ratio of 5% or higher and lower than 20%) | 1 (Herbicidal ratio of 5% or higher and lower than 20%) | 5 (Herbicidal ratio of 90% or more (almost completely withered)) | 5 (Herbicidal ratio of 90% or more (almost completely withered)) | 0 (Herbicidal ratio of 5% or lower (almost no effect)) | 0 (Herbicidal ratio of 5% or lower (almost no effect)) | 5 (Herbicidal ratio of 90% or more (almost completely withered)) |  |
| CC#Cc1cc(C)c(C2=C(O)CC(CC(=NOCCOC)C3CC3)C2=O)c(C)c1 (stereo not drawn) [9-021] |  |  |  |  |  |  |  | 0 (Herbicidal ratio of 5% or lower (almost no effect)) | 5 (Herbicidal ratio of 90% or more (almost completely withered)) | 5 (Herbicidal ratio of 90% or more (almost completely withered)) | 2 (Herbicidal ratio of 20% or higher and lower than 40%) | 1 (Herbicidal ratio of 5% or higher and lower than 20%) | 5 (Herbicidal ratio of 90% or more (almost completely withered)) | 5 (Herbicidal ratio of 90% or more (almost completely withered)) | 1 (Herbicidal ratio of 5% or higher and lower than 20%) | 1 (Herbicidal ratio of 5% or higher and lower than 20%) | 4 (Herbicidal ratio of 70% or higher and lower than 90%) |  |
